Data set [1] concerns the target T1, human norepinephrine transporter (Homo sapiens, UniProt P23975).
T1 construct: host or cells: HEK-293
Briefly: hNET receptor binding ([125I]-RTI-55 radioligand binding). As to conditions: membranes of HEK-293 cells transfected with human norepinephrine transporter, IC50 converted to Ki by Cheng-Prusoff, read-out: hNET (Ki). The method, boiled down:
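Membranes from HEK-293 cells transfected with human NET. Nonspecific binding defined with 10 μM desipramine, duplicates. IC50 by nonlinear regression, converted to Ki with Cheng-Prusoff.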

Data set [2] has as its target T2, human seritonin transporter (Homo sapiens, UniProt P31645).
T2 construct: host or cells: HEK-293
In words: hSERT receptor binding ([125I]-RTI-55 radioligand binding). As to conditions: membranes of HEK-293 cells transfected with human seritonin transporter, IC50 converted to Ki by Cheng-Prusoff, read-out: SERT (Ki).

Where only a bound is given, the exact number is not on record here.

T2 sequence (P31645 whole entry): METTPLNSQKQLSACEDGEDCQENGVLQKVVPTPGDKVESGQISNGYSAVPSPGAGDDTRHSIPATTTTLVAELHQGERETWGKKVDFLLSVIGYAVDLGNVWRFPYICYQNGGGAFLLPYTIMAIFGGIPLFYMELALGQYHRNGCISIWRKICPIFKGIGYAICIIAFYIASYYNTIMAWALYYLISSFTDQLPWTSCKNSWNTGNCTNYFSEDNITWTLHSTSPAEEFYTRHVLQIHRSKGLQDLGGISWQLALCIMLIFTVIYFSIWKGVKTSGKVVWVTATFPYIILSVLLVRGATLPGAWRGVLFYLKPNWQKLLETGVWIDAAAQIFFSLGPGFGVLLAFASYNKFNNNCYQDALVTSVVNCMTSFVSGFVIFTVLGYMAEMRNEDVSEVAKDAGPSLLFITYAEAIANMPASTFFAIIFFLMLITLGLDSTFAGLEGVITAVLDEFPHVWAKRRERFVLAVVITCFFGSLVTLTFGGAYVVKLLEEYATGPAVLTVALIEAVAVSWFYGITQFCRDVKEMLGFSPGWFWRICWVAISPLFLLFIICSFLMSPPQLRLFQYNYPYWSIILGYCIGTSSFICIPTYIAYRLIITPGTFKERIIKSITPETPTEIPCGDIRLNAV
T1 sequence (P23975 whole entry): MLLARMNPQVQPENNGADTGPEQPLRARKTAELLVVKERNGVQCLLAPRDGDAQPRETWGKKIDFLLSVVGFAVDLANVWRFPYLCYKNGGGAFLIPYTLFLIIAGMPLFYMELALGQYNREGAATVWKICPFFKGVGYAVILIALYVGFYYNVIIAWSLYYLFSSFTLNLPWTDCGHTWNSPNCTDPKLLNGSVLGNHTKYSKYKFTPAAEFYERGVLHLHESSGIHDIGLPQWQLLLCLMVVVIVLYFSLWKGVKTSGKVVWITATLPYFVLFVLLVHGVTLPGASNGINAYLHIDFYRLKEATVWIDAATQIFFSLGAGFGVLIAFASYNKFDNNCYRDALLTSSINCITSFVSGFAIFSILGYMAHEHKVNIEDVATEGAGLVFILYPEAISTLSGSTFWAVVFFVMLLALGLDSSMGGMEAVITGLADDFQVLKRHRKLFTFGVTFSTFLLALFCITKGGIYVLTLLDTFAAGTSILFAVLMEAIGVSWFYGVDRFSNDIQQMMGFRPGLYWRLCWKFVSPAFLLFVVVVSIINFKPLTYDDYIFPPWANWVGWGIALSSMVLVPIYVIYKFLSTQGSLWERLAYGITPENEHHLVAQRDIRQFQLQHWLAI

Compound `Oc1ccccc1O[C@@H](c1ccccc1)[C@@H]1CNCCO1` [Example 50, (2S,3S)-2-(Morpholin-2-yl-phenyl-methoxy)-phenol] yielded a melting point of 156 to 158 °C. Also, the Ki in data set [1] was found to be 5.2 nM. Also, in data set [2], the Ki worked out at 6260 nM.

Turning to `CC(C)Cc1ncccc1O[C@@H](c1ccccc1)[C@@H]1CNCCO1` [Example 182, (2S)-2-[(S)-[(2-isobutylpyridin-3-yl)oxy](phenyl)methyl]morpholine], the Ki in data set [1] is 31 nM; in data set [2] it was 7080 nM.

Turning to `CC(C)c1cccc(F)c1O[C@@H](c1ccccc1)[C@@H]1CNCCO1` [Example 183, (2S)-2-[(S)-(2-fluoro-6-isopropylphenoxy)(phenyl)methyl]morpholine], the values for the inhibitory constant (Ki) in data set [1] and in data set [2] were 7 nM and 5340 nM, respectively.

Turning to `COc1cccc([C@H](Oc2c(F)cccc2Br)[C@@H]2CNCCO2)n1` [Example 185, (2S)-2-[(S)-(2-bromo-6-fluorophenoxy)(6-methoxypyridin-2-yl)methyl]morpholine], the Ki came out at 8 nM in data set [1] and 201 nM in data set [2].

With `Fc1cccc(Br)c1O[C@@H](c1ccccn1)[C@@H]1CNCCO1` [Example 186, (2S)-2-[(S)-(2-bromo-6-fluorophenoxy)(pyridin-2-yl)methyl]morpholine], the results for the Ki in data set [1] and in data set [2] were 8 nM and 1260 nM, respectively.

Regarding `COc1cccc([C@H](Oc2ccccc2Br)[C@@H]2CNCCO2)n1` [Example 187, (2S)-2-[(S)-(2-bromophenoxy)(6-methoxypyridin-2-yl)methyl]morpholine], the Ki in data set [1] amounted to 15 nM; in data set [2], 224 nM.

With `COc1cccc([C@H](Oc2c(F)cccc2OC)[C@@H]2CNCCO2)n1` [Example 188, (2S)-2-[(S)-(2-fluoro-6-methoxyphenoxy) (6-methoxypyridin-2-yl)methyl]morpholine], the Ki is 14 nM in data set [1] and 2210 nM in data set [2].

As for `CCOc1ncccc1OC(C(C)C)[C@@H]1CNCCO1` (stereo partly drawn) [Example 189, (2S)-2-{1-[(2-ethoxypyridin-3-yl)oxy]-2-methylpropyl}morpholine], the results for the Ki in data set [1] and in data set [2] were 147 nM and 5220 nM, respectively.

On to `Cc1coc(C(Oc2ccccc2C2CC2)[C@@H]2CNCCO2)n1` (stereo partly drawn) [Example 190, (2S)-2-[(2-cyclopropylphenoxy)(4-methyl-1,3-oxazol-2-yl)methyl]morpholine], for which the Ki in data set [1] came to 6 nM; in data set [2] it was 4340 nM.

As to `CCC[C@H](Oc1cccnc1OCC)[C@@H]1CNCCO1` [Example 191, (2S)-2-{(1S)-1-[(2-ethoxypyridin-3-yl)oxy]butyl}morpholine], the inhibitory constant (Ki) in data set [1] worked out at 6 nM; in data set [2], 5830 nM.

As for `c1ccc([C@H](Oc2cccnc2OCC2CC2)[C@@H]2CNCCO2)cc1` [Example 192, (2S)-2-[(S)-{[2-(cyclopropylmethoxy)pyridin-3-yl]oxy}(phenyl)methyl]morpholine], the Ki came out at 38 nM in data set [1] and 1880 nM in data set [2].

Regarding `Fc1cccc(C(F)(F)F)c1O[C@@H](c1ccccc1)[C@@H]1CNCCO1` [Example 193, (2S)-2-[(S)-[2-fluoro-6-(trifluoromethyl)phenoxy](phenyl)methyl]morpholine], the Ki in data set [1] came out at 3 nM; in data set [2] it was 707 nM.

In the case of `Fc1cccc(OC(F)(F)F)c1O[C@@H](c1ccccc1)[C@@H]1CNCCO1` [Example 194, (2S)-2-[(S)-[2-fluoro-6-(trifluoromethoxy)phenoxy](phenyl)methyl]morpholine], the Ki in data set [1] amounted to 9 nM; in data set [2] it was 2560 nM.

`CCOc1ncccc1O[C@@H](Cc1ccccc1)[C@@H]1CNCCO1` [Example 197, (2S)-2-{(1S)-1-[(2-ethoxypyridin-3-yl)oxy]-2-phenylethyl}morpholine]: the inhibition constant Ki stood at 18 nM in data set [1] and 811 nM in data set [2].

`CSc1cc(F)ccc1O[C@@H](c1ccccc1)[C@@H]1CNCCO1` [Example 198, (2S)-2-[(S)-[4-fluoro-2-(methylthio)phenoxy](phenyl)methyl]morpholine]: the Ki in data set [1] was 30 nM; in data set [2] it was 62 nM.

Turning to `COc1cccc([C@H](Oc2c(F)cccc2F)[C@@H]2CNCCO2)n1` [Example 199, (2S)-2-[(S)-(2,6-difluorophenoxy)(6-methoxypyridin-2-yl)methyl]morpholine], the values for the Ki in data set [1] and in data set [2] were 8 nM and 2940 nM, respectively.

Take `c1cnc(OC[C@H]2CNCCO2)c(OC[C@H]2CNCCO2)n1` [Example 200, (2R,2′R)-2,2′-[pyrazine-2,3-diylbis(oxymethylene)]dimorpholine]: the Ki in data set [1] was 9550 nM; in data set [2], at least 10000 nM.

One may read the Ki as a measure of affinity in units of concentration, obtained from inhibition or displacement. In general, melting point refers to the temperature of the solid-liquid transition.
